One block for each compound: values may come before it. Active and inactive are the calls of the source.
What was measured:
[1] = target: Voltage-gated inwardly rectifying potassium channel KCNH2 (Homo sapiens, UniProt Q12809); experiment: concentration-dependent hERG rescue from blockers – cell-based, thallium flux, dose response (AID 2121); type: ADME
[2] = HPDE-C7 pancreatic duct cell viability loss – fluorescence, HTS (AID 430); type: functional, cell-based; details: Homo sapiens
[3] = viability loss of HPDE-C7K cells – cell-based, fluorescence, HTS, primary screen (AID 431); type: functional; details: Homo sapiens
[4] = target: T1, Protein Tat (Human immunodeficiency virus type 1 group M subtype B (isolate HXB2)(HIV-1), UniProt P04608); type: functional;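 note: tat binding to TAR RNA read out by fluorescence polarization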
T1 sequence (P04608 whole entry): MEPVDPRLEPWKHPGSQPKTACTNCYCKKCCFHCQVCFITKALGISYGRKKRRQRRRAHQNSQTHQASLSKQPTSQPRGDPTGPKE

[5] = target: T2, Corticotropin-releasing factor receptor 2/Corticotropin-releasing factor-binding protein (Homo sapiens, UniProt P24387+Q13324); experiment: Dose Response confirmation of uHTS hits for small molecule antagonists of the CRF-binding protein and CRF-R2 receptor complex.; type: functional; details: read-out: IC50_Mean
T2 sequence (Q13324 whole entry): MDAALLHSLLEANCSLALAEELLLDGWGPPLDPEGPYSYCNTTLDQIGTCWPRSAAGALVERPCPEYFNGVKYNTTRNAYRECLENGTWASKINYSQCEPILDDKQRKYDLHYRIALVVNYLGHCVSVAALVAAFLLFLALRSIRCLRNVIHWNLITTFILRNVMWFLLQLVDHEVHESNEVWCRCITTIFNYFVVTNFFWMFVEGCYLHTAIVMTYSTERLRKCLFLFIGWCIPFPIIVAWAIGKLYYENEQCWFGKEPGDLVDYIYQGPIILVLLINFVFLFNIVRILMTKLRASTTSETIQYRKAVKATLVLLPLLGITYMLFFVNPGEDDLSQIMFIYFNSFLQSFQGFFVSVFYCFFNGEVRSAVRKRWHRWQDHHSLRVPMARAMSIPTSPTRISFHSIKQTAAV
T2 sequence (P24387 whole entry): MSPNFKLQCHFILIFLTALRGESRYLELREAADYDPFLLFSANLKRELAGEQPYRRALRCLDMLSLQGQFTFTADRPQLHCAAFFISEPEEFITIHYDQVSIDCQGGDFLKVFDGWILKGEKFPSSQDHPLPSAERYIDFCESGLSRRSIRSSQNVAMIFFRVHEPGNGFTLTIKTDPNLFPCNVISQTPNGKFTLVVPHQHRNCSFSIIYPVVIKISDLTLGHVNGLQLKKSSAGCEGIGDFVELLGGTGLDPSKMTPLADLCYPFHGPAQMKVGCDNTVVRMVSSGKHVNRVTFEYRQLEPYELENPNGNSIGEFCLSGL

[6] = target: T3, Calpain-2 catalytic subunit (Sus scrofa, UniProt P43367); experiment: m-calpain protease blockers, concentration series – biochemical, fluorogenic peptide substrate, dose response (AID 1420); type: functional
T3 sequence (P43367 whole entry): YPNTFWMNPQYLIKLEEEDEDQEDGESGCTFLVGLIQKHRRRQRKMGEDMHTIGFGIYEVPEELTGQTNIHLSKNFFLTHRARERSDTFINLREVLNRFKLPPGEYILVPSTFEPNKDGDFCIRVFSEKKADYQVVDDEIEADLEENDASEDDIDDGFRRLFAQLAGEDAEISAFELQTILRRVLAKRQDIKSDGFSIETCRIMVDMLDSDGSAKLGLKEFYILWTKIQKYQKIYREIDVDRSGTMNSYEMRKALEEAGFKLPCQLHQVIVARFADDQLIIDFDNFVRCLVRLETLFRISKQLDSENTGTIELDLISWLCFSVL

[7] = target: T2, Corticotropin-releasing factor receptor 2/Corticotropin-releasing factor-binding protein; experiment: activators of CRF receptor 2 with binding protein – uHTS hits, confirmation (AID 602473); type: functional; details: read-out: EC50_Mean
[8] = target: T4, 1-phosphatidylinositol 4,5-bisphosphate phosphodiesterase gamma-1 (Homo sapiens, UniProt P19174); experiment: Counterscreen for inhibitors of phospholipase C isozymes (PLC-B3): Fluorescence-based biochemical high throughput dose response assay to identify inhibitors of phospholipase C isozymes (PLC-gamma1).
T4 sequence (P19174 whole entry): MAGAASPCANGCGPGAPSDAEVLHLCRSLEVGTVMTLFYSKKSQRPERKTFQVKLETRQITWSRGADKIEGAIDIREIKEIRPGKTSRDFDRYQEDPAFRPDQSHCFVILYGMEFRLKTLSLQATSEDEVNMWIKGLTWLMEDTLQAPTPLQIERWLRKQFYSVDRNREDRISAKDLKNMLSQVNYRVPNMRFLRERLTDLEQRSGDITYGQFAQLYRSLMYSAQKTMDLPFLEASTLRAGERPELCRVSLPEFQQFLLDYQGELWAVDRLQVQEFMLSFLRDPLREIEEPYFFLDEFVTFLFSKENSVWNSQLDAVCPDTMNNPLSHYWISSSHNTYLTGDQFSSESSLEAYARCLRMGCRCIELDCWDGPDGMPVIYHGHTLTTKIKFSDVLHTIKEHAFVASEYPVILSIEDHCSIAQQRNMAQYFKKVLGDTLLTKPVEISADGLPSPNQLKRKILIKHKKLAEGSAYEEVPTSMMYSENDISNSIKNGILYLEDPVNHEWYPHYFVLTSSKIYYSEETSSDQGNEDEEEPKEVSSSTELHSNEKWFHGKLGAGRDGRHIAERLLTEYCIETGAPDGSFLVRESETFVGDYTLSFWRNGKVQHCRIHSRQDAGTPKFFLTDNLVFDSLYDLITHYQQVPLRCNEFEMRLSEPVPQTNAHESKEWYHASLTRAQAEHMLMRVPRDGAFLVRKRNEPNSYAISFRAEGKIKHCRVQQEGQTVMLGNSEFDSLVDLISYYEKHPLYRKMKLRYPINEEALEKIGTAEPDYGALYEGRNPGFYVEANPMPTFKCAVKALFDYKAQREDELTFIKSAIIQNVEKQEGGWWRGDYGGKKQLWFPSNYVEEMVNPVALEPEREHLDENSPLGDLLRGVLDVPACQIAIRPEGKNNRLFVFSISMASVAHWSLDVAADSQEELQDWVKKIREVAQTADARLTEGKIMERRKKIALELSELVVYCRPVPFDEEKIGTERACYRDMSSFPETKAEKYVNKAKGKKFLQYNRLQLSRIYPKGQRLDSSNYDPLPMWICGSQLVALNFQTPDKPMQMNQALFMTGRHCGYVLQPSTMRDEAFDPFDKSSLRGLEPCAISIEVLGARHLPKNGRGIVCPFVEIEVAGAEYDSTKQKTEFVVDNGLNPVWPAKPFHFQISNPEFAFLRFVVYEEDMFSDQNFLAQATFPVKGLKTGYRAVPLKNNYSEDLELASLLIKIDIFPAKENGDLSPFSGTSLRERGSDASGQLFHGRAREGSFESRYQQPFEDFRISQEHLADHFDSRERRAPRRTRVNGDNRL

[9] = target: T5, 1-phosphatidylinositol 4,5-bisphosphate phosphodiesterase beta-3 (Homo sapiens, UniProt Q01970); experiment: Fluorescence-based biochemical high throughput dose response assay to identify inhibitors of phospholipase C isozymes (PLC-B3).
T5 sequence (Q01970 whole entry): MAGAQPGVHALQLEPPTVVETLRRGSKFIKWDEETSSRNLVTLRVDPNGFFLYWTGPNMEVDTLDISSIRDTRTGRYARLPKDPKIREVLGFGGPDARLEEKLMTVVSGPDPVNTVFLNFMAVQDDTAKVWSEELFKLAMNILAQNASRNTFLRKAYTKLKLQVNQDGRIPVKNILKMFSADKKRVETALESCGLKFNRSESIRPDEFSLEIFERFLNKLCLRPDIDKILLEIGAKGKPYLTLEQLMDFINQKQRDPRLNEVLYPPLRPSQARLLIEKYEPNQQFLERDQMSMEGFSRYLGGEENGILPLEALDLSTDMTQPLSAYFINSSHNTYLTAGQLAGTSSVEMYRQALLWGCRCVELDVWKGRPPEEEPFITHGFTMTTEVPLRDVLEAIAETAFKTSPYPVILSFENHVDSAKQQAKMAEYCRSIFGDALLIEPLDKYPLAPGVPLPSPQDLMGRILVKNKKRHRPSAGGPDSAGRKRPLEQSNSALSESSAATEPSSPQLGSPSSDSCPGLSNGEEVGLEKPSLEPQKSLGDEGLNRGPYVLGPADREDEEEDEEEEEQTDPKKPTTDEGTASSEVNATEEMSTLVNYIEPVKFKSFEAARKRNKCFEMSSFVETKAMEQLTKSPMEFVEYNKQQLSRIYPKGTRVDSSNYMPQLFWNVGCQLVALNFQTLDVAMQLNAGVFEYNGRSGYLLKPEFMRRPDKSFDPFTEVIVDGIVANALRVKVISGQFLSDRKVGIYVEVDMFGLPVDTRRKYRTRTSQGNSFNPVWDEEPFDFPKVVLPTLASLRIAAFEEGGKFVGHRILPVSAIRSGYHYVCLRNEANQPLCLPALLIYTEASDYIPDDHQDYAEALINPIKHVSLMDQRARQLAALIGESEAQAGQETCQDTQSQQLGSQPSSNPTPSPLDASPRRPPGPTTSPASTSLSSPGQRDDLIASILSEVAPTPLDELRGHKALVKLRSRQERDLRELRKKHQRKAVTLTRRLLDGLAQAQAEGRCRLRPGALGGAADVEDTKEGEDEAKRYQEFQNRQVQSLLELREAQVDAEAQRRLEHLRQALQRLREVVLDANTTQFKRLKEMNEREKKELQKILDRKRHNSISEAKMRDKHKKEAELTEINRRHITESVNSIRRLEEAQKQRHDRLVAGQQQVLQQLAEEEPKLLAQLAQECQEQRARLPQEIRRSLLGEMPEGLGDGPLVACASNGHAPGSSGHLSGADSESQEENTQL

[10] = blockers of bursicon-stimulated LGR2 cAMP reporter – cell-based, HEK293, CRE-luciferase reporter, cherry pick, set 2, dose response (AID 743343); type: functional;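 note: transfected cells were stimulated with diluted bursicon conditioned medium after compound addition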
[11] = blockade of melanocortin 4 receptor signaling – cell-based, plate reader, cherry pick, counter-screen for LGR2 antagonist project, dose response (AID 743444); type: functional;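 note: transfected HEK 293 cells stimulated with alpha-MSH peptide; potency of inhibitors of the alpha-MSH evoked signal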
[12] = viability loss in HEK293 cells – cell-based, plate reader, cherry-picked samples, cytotoxicity control, dose response (AID 743446); type: functional
[13] = viability loss in THP-1 monocytes – THP-1 cells, cytotoxicity control for Vif-APOBEC3G degradation inhibitor project, dose response (AID 1117359); type: functional; details: THP-1
[14] = target: Large T antigen (Simian virus 40, UniProt P03070); type: functional, Betapolyomavirus macacae;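 note: Confirmatory-stage PubChem screen for compounds that inhibit SV40 T antigen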
[15] = target: Genome polyprotein (dengue virus type 2, UniProt P29990); experiment: flavivirus cap methylation enzyme inhibition – biochemical, confirmation dose response, primary screen (AID 588689); type: functional
[16] = P. falciparum Dd2 growth inhibitors, dose response, SYBR Green, cherry-picked samples (AID 1159567); type: functional, cell-based
[17] = reduced cellular PGC1a acetyl-lysine signal – cell-based, cherry-picked samples, dose response (AID 720514); type: functional;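 note: potency may reflect raised or lowered acetylation signal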
[18] = toxicity to human hepatoma HepG2 cells – cell-based, cherry-picked samples, cytotoxicity control, dose response (AID 1159577); type: functional
[19] = growth inhibition of PfATP4-mutant resistant parasites – NITD609-resistant line, SYBR Green, dry powder, dose response (AID 1159571); type: functional, cell-based;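 note: parasites synchronized at ring stage by sorbitol before testing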
[20] = toxicity to human HepG2 hepatoma cells – cell-based, plate reader, dry powder samples, cytotoxicity control, dose response (AID 1159569); type: functional;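 note: inhibitor potency with signal falling toward the positive control level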
[21] = Dd2 malaria parasite growth inhibition potency – SYBR Green, dry powder samples, dose response (AID 1159566); type: functional, cell-based;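 note: potency for growth inhibition with lower SYBR green DNA signal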
[22] = growth inhibition of yeast DHODH-expressing 3D7 parasites – SYBR Green, dry powder samples, dose response (AID 1159570); type: functional, cell-based;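 note: parasite growth measured after 72 hours of compound exposure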

Chain of Large T antigen (P03070 whole entry): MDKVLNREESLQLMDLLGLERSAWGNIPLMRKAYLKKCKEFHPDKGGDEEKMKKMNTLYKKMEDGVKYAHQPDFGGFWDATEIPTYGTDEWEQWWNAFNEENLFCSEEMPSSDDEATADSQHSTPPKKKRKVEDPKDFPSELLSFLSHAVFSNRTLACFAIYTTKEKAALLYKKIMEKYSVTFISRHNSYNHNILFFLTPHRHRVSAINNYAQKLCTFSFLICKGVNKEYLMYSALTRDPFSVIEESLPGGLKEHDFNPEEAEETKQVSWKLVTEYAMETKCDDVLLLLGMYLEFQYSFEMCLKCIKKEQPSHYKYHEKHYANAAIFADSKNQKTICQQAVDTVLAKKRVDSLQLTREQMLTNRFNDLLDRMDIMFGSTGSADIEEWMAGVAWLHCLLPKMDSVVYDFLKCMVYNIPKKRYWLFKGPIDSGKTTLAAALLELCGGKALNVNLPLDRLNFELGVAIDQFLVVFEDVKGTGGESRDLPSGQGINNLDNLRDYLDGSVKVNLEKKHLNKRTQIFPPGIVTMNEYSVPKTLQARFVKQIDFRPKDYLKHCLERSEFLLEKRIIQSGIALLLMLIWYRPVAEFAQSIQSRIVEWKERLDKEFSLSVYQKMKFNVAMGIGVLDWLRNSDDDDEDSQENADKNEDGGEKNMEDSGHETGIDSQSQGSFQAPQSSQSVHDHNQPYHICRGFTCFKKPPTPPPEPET
Chain of Genome polyprotein (P29990 2492-3391 limits assumed): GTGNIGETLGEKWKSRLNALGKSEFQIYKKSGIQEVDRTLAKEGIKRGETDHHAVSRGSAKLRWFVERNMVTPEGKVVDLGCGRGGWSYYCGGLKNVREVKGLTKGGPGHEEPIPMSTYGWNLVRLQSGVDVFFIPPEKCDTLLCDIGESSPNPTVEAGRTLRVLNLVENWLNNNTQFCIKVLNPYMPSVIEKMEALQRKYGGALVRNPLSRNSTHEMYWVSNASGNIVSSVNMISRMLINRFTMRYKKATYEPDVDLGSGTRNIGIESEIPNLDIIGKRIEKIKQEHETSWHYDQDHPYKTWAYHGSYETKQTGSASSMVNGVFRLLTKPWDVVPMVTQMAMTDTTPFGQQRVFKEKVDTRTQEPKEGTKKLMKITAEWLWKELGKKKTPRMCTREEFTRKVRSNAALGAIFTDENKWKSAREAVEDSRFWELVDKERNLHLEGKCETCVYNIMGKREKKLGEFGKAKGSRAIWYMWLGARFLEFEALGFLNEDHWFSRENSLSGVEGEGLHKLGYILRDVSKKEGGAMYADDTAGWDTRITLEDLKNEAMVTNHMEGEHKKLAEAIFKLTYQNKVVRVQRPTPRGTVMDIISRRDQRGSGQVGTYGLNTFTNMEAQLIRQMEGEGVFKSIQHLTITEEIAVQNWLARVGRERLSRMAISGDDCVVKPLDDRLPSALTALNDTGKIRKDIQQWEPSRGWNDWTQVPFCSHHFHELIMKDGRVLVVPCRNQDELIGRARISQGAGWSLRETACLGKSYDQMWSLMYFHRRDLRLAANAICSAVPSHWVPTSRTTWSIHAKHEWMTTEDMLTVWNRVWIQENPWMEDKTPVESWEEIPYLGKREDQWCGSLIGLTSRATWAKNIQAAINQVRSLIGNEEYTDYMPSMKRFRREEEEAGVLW
Chain of Voltage-gated inwardly rectifying potassium channel KCNH2 (Q12809 whole entry): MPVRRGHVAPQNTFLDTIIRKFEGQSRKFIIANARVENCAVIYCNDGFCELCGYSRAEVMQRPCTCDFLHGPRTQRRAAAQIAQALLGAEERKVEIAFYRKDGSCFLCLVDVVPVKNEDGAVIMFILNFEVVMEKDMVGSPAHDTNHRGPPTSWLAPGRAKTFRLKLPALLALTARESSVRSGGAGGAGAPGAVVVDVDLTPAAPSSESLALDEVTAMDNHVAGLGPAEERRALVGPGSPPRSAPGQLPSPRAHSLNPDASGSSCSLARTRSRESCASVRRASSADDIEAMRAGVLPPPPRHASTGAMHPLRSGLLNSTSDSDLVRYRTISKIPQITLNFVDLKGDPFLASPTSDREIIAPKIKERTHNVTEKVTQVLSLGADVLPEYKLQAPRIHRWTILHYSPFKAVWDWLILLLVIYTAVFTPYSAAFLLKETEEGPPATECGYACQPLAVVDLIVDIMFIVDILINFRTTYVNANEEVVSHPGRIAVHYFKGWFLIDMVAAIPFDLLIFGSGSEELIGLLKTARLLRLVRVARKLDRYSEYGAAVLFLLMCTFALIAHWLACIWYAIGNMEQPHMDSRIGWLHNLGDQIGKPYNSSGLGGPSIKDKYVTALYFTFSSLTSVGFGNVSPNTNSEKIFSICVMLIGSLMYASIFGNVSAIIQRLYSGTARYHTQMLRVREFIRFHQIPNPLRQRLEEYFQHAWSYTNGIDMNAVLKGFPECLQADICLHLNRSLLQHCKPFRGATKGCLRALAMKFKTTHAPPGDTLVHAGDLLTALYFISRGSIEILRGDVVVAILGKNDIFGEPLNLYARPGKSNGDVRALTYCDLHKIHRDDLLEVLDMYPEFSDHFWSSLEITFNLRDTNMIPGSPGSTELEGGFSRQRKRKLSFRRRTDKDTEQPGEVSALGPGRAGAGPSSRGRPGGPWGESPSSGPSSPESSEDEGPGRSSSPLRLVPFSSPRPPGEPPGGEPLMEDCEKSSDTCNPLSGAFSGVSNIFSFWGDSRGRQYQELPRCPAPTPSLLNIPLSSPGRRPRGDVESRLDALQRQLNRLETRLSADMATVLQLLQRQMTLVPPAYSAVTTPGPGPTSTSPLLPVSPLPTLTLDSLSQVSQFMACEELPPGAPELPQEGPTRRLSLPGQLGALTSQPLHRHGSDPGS

SMILES: CC(=O)c1c(N)nc(-c2ccccc2)nc1S
EC50 [1]: 11 µM (active)

SMILES: OC(COCc1ccc(Cl)cc1)CN1CCN(CC(O)COCc2ccc(Cl)cc2)CC1 (stereo not drawn)
EC50 [2]: > 20 µM (not active) | EC50 [3]: > 20 µM (not active)

SMILES: COc1cccc(C(C#N)N2CCCCC2)c1O (stereo not drawn)
IC50 [4]: > 100 µM (active)

SMILES: Brc1ccc(CSc2nnc(Cc3c[nH]c4ccccc34)o2)cc1
IC50 [5]: > 47.1 µM (inactive) | EC50 [2]: 14.2 µM (active) | IC50 [6]: 5.75 µM (not active) | EC50 [7]: > 53 µM (inactive) | EC50 [3]: 13.4 µM (active)

IC50 [8]: > 123 µM (inactive) | IC50 [9]: > 123 µM (inactive)
SMILES: COc1ccc(NC(=O)c2cc(-c3ccc(OC)c(OC)c3)on2)cc1OC

SMILES: Cc1cc(C(=O)COC(=O)c2cccn2C)c(C)n1Cc1ccco1
AC50 [10]: 5.16 µM (active) | AC50 [11]: 9.65 µM (active) | AC50 [12]: > 52 µM (inactive)

SMILES: C=CCc1cccc(CNc2nc3ccccc3n2CC)c1O
EC50 [2]: > 20 µM (not active) | EC50 [3]: > 20 µM (not active)

IC50 [4]: 14 µM (inconclusive) | IC50 [14]: 10.2 µM (active)
SMILES: CCOC(=O)N1CCN(c2ccc(O)cc2)CC1
CC50 [13]: > 40 µM (active)

SMILES: CCOc1cc(Br)cc(C(c2c(C(=O)O)[nH]c3ccccc23)c2c(C(=O)O)[nH]c3ccccc23)c1O
IC50 [8]: 18.6 µM (inactive) | IC50 [9]: > 122 µM (inactive) | IC50 [15]: 18.7 µM (active)

IC50 [8]: > 122 µM (inactive) | IC50 [9]: > 122 µM (inactive)
SMILES: COC(=O)C[C@@H]1CC[C@@H]2[C@H](COc3ccc(NC(=O)c4cccc(F)c4)cc3C(=O)N2C)O1

SMILES: COc1cc(CN2C[C@@H]3N[C@H](C2)[C@@H]3c2ccc(/C=C/c3ccccc3)cc2)cc(OC)c1
AC50 [16]: 2.38 µM (active) | AC50 [17]: 13 µM (active) | AC50 [18]: 6.51 µM (active)

SMILES: COc1ccc2c3c(n(C)c2c1)[C@H](CO)N(C(=O)Nc1ccc(F)cc1)CC31CN(C(=O)c2ccc3c(c2)OCO3)C1
AC50 [19]: 1.2 µM (active) | AC50 [16]: 2.68 µM (active) | AC50 [20]: > 100 µM (inactive) | AC50 [21]: 0.683 µM (active) | AC50 [22]: 1.89 µM (active)

SMILES: CO[C@@H]1CN(C)C(=O)c2ccc(NC(=O)c3nc4ccccc4s3)cc2OC[C@@H](C)N(Cc2ccncc2)C[C@H]1C
AC50 [19]: 1.34 µM (active) | AC50 [16]: 2.62 µM (active) | AC50 [20]: 26.7 µM (active) | AC50 [21]: 1.33 µM (active) | AC50 [22]: 1.39 µM (active) | AC50 [18]: > 39 µM (inactive)

— ChEMBL document CHEMBL1201862, “PubChem BioAssay data set” (2004)
